For ten compounds, inhibition results are on record in ChEMBL document CHEMBL5442334, “ASAP - In vitro safety pharmacology profile” (2024).

A word on the inhibition: it is the drop in the measured response relative to a control, in per cent.

Common to all, as to settings: Test compound concentration 10.0 uM
Assay [1] deals with Cannabinoid receptor 2 (Homo sapiens) (UniProt P34972). Description: SafetyScreen: CB2 Human Cannabinoid GPCR Binding Agonist Radioligand LeadHunter Assay, catalogue number: 37.
The target in assay [2] is 5-hydroxytryptamine receptor 1B (Homo sapiens) (UniProt P28222). Nature of the assay: SafetyScreen: 5-HT1B Human Serotonin GPCR Binding Antagonist Radioligand LeadHunter Assay, catalogue number: 4376.
The target in assay [3] is Histamine H2 receptor (Homo sapiens) (UniProt P25021). Description: SafetyScreen: H2 Human Histamine GPCR Binding Antagonist Radioligand LeadHunter Assay, catalogue number: 1208.
Assay [4] deals with T1, Alpha-2A adrenergic receptor (Homo sapiens) (UniProt P08913).
T1 sequence (whole entry): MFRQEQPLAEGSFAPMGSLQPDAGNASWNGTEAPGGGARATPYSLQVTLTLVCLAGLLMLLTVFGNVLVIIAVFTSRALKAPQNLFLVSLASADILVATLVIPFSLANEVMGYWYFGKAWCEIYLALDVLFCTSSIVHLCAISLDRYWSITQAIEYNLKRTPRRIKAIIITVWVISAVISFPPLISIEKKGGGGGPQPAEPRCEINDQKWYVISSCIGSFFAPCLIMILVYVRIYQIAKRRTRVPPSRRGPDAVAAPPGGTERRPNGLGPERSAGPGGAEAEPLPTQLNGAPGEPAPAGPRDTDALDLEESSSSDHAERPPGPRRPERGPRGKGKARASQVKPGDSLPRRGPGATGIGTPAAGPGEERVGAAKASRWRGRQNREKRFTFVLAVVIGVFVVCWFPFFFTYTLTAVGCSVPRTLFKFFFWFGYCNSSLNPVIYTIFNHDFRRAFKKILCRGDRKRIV
Nature of the assay: SafetyScreen: alpha2A Human Adrenoceptor GPCR Binding Antagonist Radioligand LeadHunter Assay, catalogue number: 13.

Assay [5] concerns the target T2, Alpha-1A adrenergic receptor (Homo sapiens) (UniProt P35348).
T2 sequence (whole entry): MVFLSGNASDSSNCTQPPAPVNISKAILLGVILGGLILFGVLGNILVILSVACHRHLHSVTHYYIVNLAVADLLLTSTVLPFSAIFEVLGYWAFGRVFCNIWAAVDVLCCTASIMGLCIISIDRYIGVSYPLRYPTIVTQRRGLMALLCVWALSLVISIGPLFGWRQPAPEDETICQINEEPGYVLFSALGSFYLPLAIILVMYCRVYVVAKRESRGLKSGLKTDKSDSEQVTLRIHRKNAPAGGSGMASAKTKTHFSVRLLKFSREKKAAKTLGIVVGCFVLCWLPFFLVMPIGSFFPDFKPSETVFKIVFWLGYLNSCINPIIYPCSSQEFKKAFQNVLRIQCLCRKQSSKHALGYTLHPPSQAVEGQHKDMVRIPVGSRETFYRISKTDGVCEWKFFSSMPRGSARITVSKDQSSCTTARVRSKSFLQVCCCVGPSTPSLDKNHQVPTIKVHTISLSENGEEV
Nature of the assay: SafetyScreen: alpha1A Human Adrenoceptor GPCR Binding Antagonist Radioligand LeadHunter Assay, catalogue number: 2338.

The target in assay [6] is Neuronal acetylcholine receptor; alpha4/beta2 (Homo sapiens) (UniProt P17787+P43681). Description: SafetyScreen: nAChR (alpha4/beta2) Human Ion Channel Binding Agonist Radioligand LeadHunter Assay, catalogue number: 3029. Format: protein-complex assay.

Chain of Histamine H2 receptor (Homo sapiens) (P25021 whole entry): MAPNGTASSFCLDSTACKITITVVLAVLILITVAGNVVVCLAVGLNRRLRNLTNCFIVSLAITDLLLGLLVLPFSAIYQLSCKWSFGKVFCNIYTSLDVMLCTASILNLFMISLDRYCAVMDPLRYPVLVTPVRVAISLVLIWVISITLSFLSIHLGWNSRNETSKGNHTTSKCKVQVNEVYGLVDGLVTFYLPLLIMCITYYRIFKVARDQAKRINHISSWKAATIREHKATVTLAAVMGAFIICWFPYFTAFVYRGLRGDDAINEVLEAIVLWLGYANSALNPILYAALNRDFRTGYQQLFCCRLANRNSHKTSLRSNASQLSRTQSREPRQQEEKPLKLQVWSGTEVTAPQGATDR
Chain of Cannabinoid receptor 2 (Homo sapiens) (P34972 whole entry): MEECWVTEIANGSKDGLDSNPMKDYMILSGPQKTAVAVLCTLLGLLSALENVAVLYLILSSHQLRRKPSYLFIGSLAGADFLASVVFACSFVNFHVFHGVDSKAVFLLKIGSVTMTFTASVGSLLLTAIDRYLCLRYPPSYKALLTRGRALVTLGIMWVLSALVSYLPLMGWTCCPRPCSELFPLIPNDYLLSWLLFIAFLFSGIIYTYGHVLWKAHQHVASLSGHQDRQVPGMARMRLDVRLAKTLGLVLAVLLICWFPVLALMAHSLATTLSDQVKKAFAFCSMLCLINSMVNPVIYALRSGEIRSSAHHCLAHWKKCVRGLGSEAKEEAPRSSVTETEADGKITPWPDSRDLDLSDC
Chain of 5-hydroxytryptamine receptor 1B (Homo sapiens) (P28222 whole entry): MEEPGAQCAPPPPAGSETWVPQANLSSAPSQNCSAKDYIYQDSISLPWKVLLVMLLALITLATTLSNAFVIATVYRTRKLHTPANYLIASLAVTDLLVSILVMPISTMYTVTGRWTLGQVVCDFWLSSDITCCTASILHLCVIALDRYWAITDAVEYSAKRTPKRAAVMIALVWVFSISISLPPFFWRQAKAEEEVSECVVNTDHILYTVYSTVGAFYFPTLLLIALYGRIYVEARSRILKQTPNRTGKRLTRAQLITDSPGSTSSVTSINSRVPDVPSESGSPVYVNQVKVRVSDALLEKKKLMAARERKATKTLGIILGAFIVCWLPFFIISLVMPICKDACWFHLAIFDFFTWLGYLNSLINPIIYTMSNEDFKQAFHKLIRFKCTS

Regarding `CC(C)[C@@H](Nc1ncnc2[nH]c(C(=O)N[C@@H]3CCN(C)C3)cc12)c1ccc2c(c1)S(=O)(=O)CCC2`, the inhibition in assay [1] was -8%; in assay [2], 17%; in assay [3], -9%; in assay [4] it was 6%; in assay [5] it was 38%; in assay [6], -2%.

`CNCc1cc(-c2cc3c(N[C@@H](c4ccc5c(c4)S(=O)(=O)CCC5)C(C)C)ncnc3[nH]2)co1`: the inhibition is -8% in assay [1]; 45% in assay [2]; -3% in assay [3]; 15% in assay [4]; 50% in assay [5]; 0% in assay [6].

Regarding `COc1ccc([C@H](Cc2nnn[nH]2)NC(=O)c2ncnc3[nH]ccc23)cc1`, the results for the inhibition in assay [4], in assay [5] and in assay [6] were -1%, -7% and 4%, respectively.

Take `CC(C)[C@@H](Nc1ncnc2[nH]c(-c3cnn(C)c3C#N)cc12)c1ccc2c(n1)OCCO2`: the inhibition in assay [1] is 16%; in assay [2], 4%; in assay [4], 9%; in assay [5] it was 11%; in assay [6], -2%.

For the compound `CC(C)[C@H](Nc1ncnc2[nH]ccc12)c1ccc2c(c1)S(=O)(=O)CCC2`, the inhibition in assay [2] is 0%; in assay [3], -6%; in assay [4], 10%; in assay [5], -2%; in assay [6], 1%.

`CC(C)[C@H](Nc1ncnc2[nH]c(-c3cnn(C)c3C#N)cc12)c1ccc2c(n1)OCCO2`: the inhibition in assay [1] was found to be 44%; in assay [4] it was 7%; in assay [5] it was 34%; in assay [6] it was 2%.

With `CNC(=O)Cn1cc(-c2cc3c(N[C@@H](c4ccc5c(c4)S(=O)(=O)CCC5)C(C)C)ncnc3[nH]2)cn1`, the figures for the inhibition in assay [2], in assay [4] and in assay [5] were 0%, 4% and 11%, respectively.

Consider `Cn1ncc(-c2cc3c(N[C@@H](c4ccc5c(n4)OCCO5)C(C)(C)C)ncnc3[nH]2)c1C#N`, for which the inhibition in assay [1] is 31%; in assay [2], 18%; in assay [3] it was -10%; in assay [4] it was 11%; in assay [5] it was 54%; in assay [6], -5%.

Turning to `Cc1nn(C)cc1-c1cc2c(N[C@H](c3ccc4c(c3)S(=O)(=O)CCC4)C(C)C)ncnc2[nH]1`, the inhibition in assay [1] is -8%; in assay [2], 15%; in assay [3], -4%; in assay [4], 5%; in assay [5], 8%; in assay [6], -2%.

In the case of `C[C@H](C(=O)O)[C@@H](NC(=O)c1ncnc2[nH]ccc12)c1ccc(Br)cc1`, the inhibition in assay [1] is -5%; in assay [2], 1%; in assay [4] it was 3%; in assay [5], -8%; in assay [6] it was 0%.
